Common to all, as to assay type: cell-based
The subject of test [1] is p53/p53 homo-dimerization. Kind of test: Renilla luciferase PCA (RLuc PCA) for p53/p53 in HEK293T cells. An excerpt:
Either the wild type RLuc F1 or the mutant RLuc F1(C124A) can be used in combination with the RLuc F2 fragment provided above to generate luminescent PCAs. The following examples below show the results obtained with the wild-type RLuc fragments. The F1 and F2 fragments described above were created by oligonucleotide synthesis (Blue Heron Biotechnology, Bothell, Wash.) and were designated RL[1] (aa 1–160) and RL[2] (aa 161–311). […]
STAT1/PDK2 served as a negative control PCA. […] Isolated DNAs were quantitated and then normalized to a concentration of 50 ng/microliter.
The luciferase PCA was constructed to quantify the homo-dimerization of p53 (p53/p53 PCA) and compared to a negative control RLuc PCA (Pdk2/STAT1). […] For each sample, the luminescence released was captured over 10 seconds, with a 2 second delay after addition of substrate to the sample. Data are reported as relative luminescence units (RLU), and have not been normalized to protein content.
For each condition tested, cells were transfected in quadruplicate with 0.1 microgram of total DNA (50 ng each of RL[1]-p53 and RL[2]-p53) using Fugene transfection reagent as above. […] Drug was removed by washing two times with PBS, and cell lysates were prepared as described above prior to performing a Renilla Luciferase luminescence detection assay (Promega). […]

Test [2] relates to Pdk2:STAT1. Put plainly: negative control RLuc PCA (Pdk2/STAT1) in HEK293T cells. The note with it: 500 nM CPT for 18 hours. The text has this: STAT1/PDK2 served as a negative control PCA. The full coding sequences for p53, STAT1 and PDK2 were amplified by PCR from sequence verified full-length cDNAs. The resulting PCR products were desalted, digested with appropriate restriction enzymes to allow directional cloning, and fused in-frame to either the 5′ or 3′-end of RL[1], RL[2], RL[3] or RL[4] through a linker encoding a flexible 10 amino acid peptide (GGGGS)2 (SEQ ID No.1) to assure that the orientation/arrangement of the fusions in space is optimal to bring the fluorescent protein fragments into close proximity. DNAs from recombinant constructs were isolated using Qiagen Turbo BioRobot Prep kits (Qiagen, Chatsworth, Calif.) on a Beckman FX robotic workstation (Beckman Coulter, Fullerton, Calif.). Isolated DNAs were quantitated and then normalized to a concentration of 50 ng/microliter.
The luciferase PCA was constructed to quantify the homo-dimerization of p53 (p53/p53 PCA) and compared to a negative control RLuc PCA (Pdk2/STAT1). […] For each sample, the luminescence released was captured over 10 seconds, with a 2 second delay after addition of substrate to the sample. Data are reported as relative luminescence units (RLU), and have not been normalized to protein content. […]

Test [3] relates to PKB/hFt1 complex. Put plainly: GFP PCA for PKB/hFt1 in COS-1 cells, fluorometric analysis and microscopy. To be noted: 10% serum or 20 μg/ml insulin, 30 min. The text has this:
(§1) DNA Constructs. The full-length cDNAs encoding PKB, PDK1, PKCalpha, the catalytic subunit of PKA (PKAc), GSK3beta, BAD, Caspase 9 and FKHRL1 were amplified by PCR and subcloned into the eukaryotic expression vector pMT3 [Kaufman, 1989 #23], 5′ of the F[2] fragment of GFP. GFP[1] corresponds to amino acids 1 to 158 and GFP[2] to amino acids 159 to 239 of GFP and was amplified by PCR from pCMS-EGFP (Clontech). The PKB-GFP[2] fusion was also inserted in a pMT3 vector where the ampicillin resistance gene has been replaced by a chloramphenicol resistance gene (pMT3-chloramphenicol) for the purpose of the cDNA library screen. In all cases, a 10 amino acid flexible linker consisting of (GGGGS)2 (SEQ ID No.1) was inserted between the cDNA and the GFP fragments to assure that the orientation/arrangement of the fusions in space is optimal to bring the protein fragments into close proximity. […]
(§2) COS-1 cells were split in 12-well plates 24 h before transfection. […] The relative amount of reconstituted GFP, a measure of the interaction between the fused protein partners, was detected by fluorometric analysis. […] The background fluorescence intensity corresponding to non-transfected cells was subtracted from the fluorescence intensities of all of the samples. The sub-cellular location of the hFt1/PKB and hFt1/PDK1 protein-protein complexes was also determined by fluorescence microscopy in live cells. […]

In test [4] the test system is PDK1/hFt1 complex. Kind of test: GFP PCA for PDK1/hFt1 in COS-1 cells, fluorometric analysis and microscopy. The note with it: 10% serum or 20 μg/ml insulin, 30 min.
Text: as §1, §2

As for `CC[C@@]1(O)C(=O)OCc2c1cc1n(c2=O)Cc2cc3ccccc3nc2-1` [camptothecin], in test [1] (500 nM CPT for 18 hours, HEK293T lysates), the “increase in luminescence relative to vehicle (0.1% DMSO)” value came to 27%. Also, the “effect on the p53/p53 interaction in the RLuc PCA (in words)” value in test [1] (FIG. 3(B)) is on record as “induction”. In test [2], the “effect on luminescence of the negative control PCA” value was “no effect”.

As to “insulin: insulin (Roche Diagnostics), pathway stimulus”, in test [3], the “amount of the PKB/hFt1 complexes (fluorescence)” value is listed as “increase” and the “subcellular location of PKB/hFt1 complexes” value is reported as “redistribution of the protein-protein complexes from the cytosol to the membrane”. Besides, in test [4], the “amount of the PDK1/hFt1 complexes (fluorescence)” value is listed as “increase” and the “subcellular location of PDK1/hFt1 complexes” value was “redistribution of the protein-protein complexes from the cytosol to the membrane”.

The values above are taken from US7062219B2, “Protein fragment complementation assays for high-throughput and high-content screening” (Odyssey Thera Inc., priority 1997, dated 2006).
